Reference: ChEMBL document CHEMBL1146918, “Synthesis and anti-angiogenesis activity of coumarin derivatives” (Bioorg Med Chem Lett, 2006)

Legend:
SiHa = test: Antiproliferative activity against human SiHa cell line; format: functional, cell-based
HeLa = test: Antiproliferative activity against human HeLa cell line; format: functional, cell-based
U-87 MG = test: Antiproliferative activity against human U87 MG cell line; format: functional, cell-based, U-87MG ATCC
HUVEC = test: Antiproliferative activity against HUVEC cell line; format: functional, cell-based; details: Homo sapiens
DLD-1 = test: Antiproliferative activity against human DLD1 cell line; format: functional, cell-based
NIH3T3 = test: Antiproliferative activity against mouse NIH3T3 cell line; format: functional, cell-based
B16 = test: Antiproliferative activity against mouse B16 cell line; format: functional, cell-based

SMILES	IC50 (SiHa) [µM]	IC50 (HeLa) [µM]	IC50 (U-87 MG) [µM]	IC50 (HUVEC) [µM]	IC50 (DLD-1; read-out: IC50) [µM]	IC50 (NIH3T3) [µM]	IC50 (B16) [µM]	IC50 (DLD-1) [µM]
CCN(CC)c1ccc2cc(-c3nc4ccccc4s3)c(=O)oc2c1	> 70	> 70	> 70	> 70	> 70	> 70	> 70	–
O=Cc1cc2c3c(c1O)CCCN3CCC2	> 70	> 70	> 70	35.4	> 70	> 70	> 70	–
O=c1oc2c3c4c(cc2cc1-c1nc2ccccc2[nH]1)CCCN4CCC3	14.6	11.6	33.4	3.3	35.2	41.4	8.9	–
CCN(CC)c1ccc2c(C#N)c(-c3nc4ccccc4s3)c(=O)oc2c1	> 70	> 70	> 70	4.8	> 70	> 70	> 70	–
O=c1oc2c3c4c(cc2cc1[N+](=O)[O-])CCCN4CCC3	> 70	> 70	> 70	> 70	> 70	> 70	> 70	–
CCN(CC)c1ccc2cc(-c3nc4ccccc4[nH]3)c(=O)oc2c1	62.1	> 70	15	9.6	> 70	9.3	12.6	–
CCN(CC)c1ccc2cc(C(C)=O)c(=O)oc2c1	> 70	> 70	> 70	> 70	> 70	> 70	> 70	–
CC(=O)O[C@H]1C(=O)[C@@]2(C)[C@H]([C@H](OC(=O)c3ccccc3)[C@]3(O)C[C@H](OC(=O)[C@H](O)[C@@H](NC(=O)c4ccccc4)c4ccccc4)C(C)=C1C3(C)C)[C@]1(OC(C)=O)CO[C@@H]1C[C@@H]2O [PACLITAXEL]	3.5	0.47	0.08	0.06	–	1.29	0.08	0.09
